Source: patent US8716303B2, “N-(hetero)aryl-pyrrolidine derivatives of pyrazol-4-yl-pyrrolo[2,3-d]pyrimidines and pyrrol-3-yl-pyrrolo[2,3-d]pyrimidines as janus kinase inhibitors” (Incyte Corporation, priority 2009, dated 2014)
Counter-ions that a name gives are not always drawn.

Experiments:
[1] = molecular target: T1, human JAK1 (a.a. 837-1142) (Homo sapiens, UniProt P23458); assay: In vitro JAK kinase assay (HTRF, phosphorylation of a biotinylated peptide), JAK1; format: biochemical
T1 construct: human JAK1 (a.a. 837-1142); His tag (N); made in house; host or cells: insect cells (baculovirus)
T1 sequence (P23458 849-1154): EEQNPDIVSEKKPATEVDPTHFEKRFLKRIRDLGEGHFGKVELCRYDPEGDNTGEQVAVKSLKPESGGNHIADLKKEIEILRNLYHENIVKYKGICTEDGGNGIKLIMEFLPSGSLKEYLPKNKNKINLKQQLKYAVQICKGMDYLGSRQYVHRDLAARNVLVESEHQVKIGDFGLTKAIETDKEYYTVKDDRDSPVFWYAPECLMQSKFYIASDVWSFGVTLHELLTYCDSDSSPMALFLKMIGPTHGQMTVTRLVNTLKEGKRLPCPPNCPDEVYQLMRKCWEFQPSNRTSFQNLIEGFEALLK
Method in brief: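 His-tagged catalytic domains (JAK1 a.a. 837-1142, JAK2 a.a. 828-1132) from insect cells phosphorylate 500 nM biotinylated peptide in 50 mM Tris pH 7.8, 100 mM NaCl, 5 mM DTT; ATP at Km (90 μM JAK1, 30 μM JAK2) or 1 mM, as indicated. 1 h at RT; EDTA stop, HTRF readout; IC50s.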

[2] = molecular target: T2, Jak2 (a.a. 828-1132) (Homo sapiens, UniProt O60674); assay: In vitro JAK kinase assay (HTRF, phosphorylation of a biotinylated peptide), JAK2, reported as JAK2/JAK1 ratio; format: biochemical
T2 construct: Jak2 (a.a. 828-1132); His tag (N); made in house; host or cells: insect cells (baculovirus)
T2 sequence (O60674 828-1132): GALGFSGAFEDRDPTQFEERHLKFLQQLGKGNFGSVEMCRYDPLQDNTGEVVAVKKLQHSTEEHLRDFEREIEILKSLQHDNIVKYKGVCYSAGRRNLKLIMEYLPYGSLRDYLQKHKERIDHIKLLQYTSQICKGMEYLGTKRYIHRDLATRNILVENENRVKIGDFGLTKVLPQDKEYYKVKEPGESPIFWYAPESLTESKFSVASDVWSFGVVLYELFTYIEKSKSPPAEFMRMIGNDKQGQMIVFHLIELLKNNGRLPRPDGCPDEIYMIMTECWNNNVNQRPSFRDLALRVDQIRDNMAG

[3] = Assay Conditions Km (ATP 90 μM for Jak1)
[4] = Assay Conditions Km (ATP 90 μM for Jak1, 30 μM for Jak2)

SMILES	IC50 [1, 3] [µM]	JAK2/JAK1 IC50 ratio [2, 4]	IC50 ([1]; Assay Conditions 1 mM ATP) [µM]	JAK2/JAK1 IC50 ratio ([2]; Assay Conditions 1 mM ATP)
N#CCC(C1CCN(c2nccc(Cl)n2)C1)n1cc(-c2ncnc3[nH]ccc23)cn1 (single isomer, unassigned) [Example 4a, 3-[1-(4-chloropyrimidin-2-yl)pyrrolidin-3-yl]-3-[4-(7H-pyrrolo[2,3-d]pyrimidin-4-yl)-1H-pyrazol-1-yl]propanenitrile]	< 0.05	8.8		
N#CCC(C1CCN(c2nc3ccccc3o2)C1)n1cc(-c2ncnc3[nH]ccc23)cn1 (single isomer, unassigned) [9, Step 3b]	< 0.05	6.3		
N#CC[C@@H]([C@H]1CCN(c2c(F)cc(F)c(F)c2C#N)C1)n1cc(-c2ncnc3[nH]ccc23)cn1 [Example 61, 2-((3S)-3-{(1S)-2-cyano-1-[4-(7H-pyrrolo[2,3-d]pyrimidin-4-yl)-1H-pyrazol-1-yl]ethyl}pyrrolidin-1-yl)-3,5,6-trifluorobenzonitrile trifluoroacetate salt]			< 0.05	6.4

Results, then the compound that gave them:

IC50 [1, 3] [µM]	JAK2/JAK1 IC50 ratio [2, 4]	IC50 ([1]; Assay Conditions 1 mM ATP) [µM]	JAK2/JAK1 IC50 ratio ([2]; Assay Conditions 1 mM ATP)	SMILES
		< 0.05	3.1	N#CC[C@@H]([C@H]1CCN(c2ccc(F)c(F)n2)C1)n1cc(-c2ncnc3[nH]ccc23)cn1.O=C(O)C(F)(F)F [Example 89, (3S)-3-[(3S)-1-(5,6-difluoropyridin-2-yl)pyrrolidin-3-yl]-3-[4-(7H-pyrrolo[2,3-d]pyrimidin-4-yl)-1H-pyrazol-1-yl]propanenitrile trifluoroacetate]
		< 0.05	5.3	FCC([C@H]1CCN(c2nc3c(cc2F)CCS3)C1)n1cc(-c2ncnc3[nH]ccc23)cn1 (stereo partly drawn) [Example 85, 4-(1-{2-fluoro-1-[(3S)-1-(5-fluoro-2,3-dihydrothieno[2,3-b]pyridin-6-yl)pyrrolidin-3-yl]ethyl}-1H-pyrazol-4-yl)-7H-pyrrolo[2,3-d]pyrimidine bis(trifluoroacetate)]
